Assay results: patent US12077503B2, “Substituted cyclic amides and their use as herbicides” (FMC CORPORATION, priority 2015, dated 2024)

Experiments:
Assay type in all cases: in vivo
Kochia (Kochia scoparia) [1] = test: Test A preemergence; settings: Bassia scoparia, pre-emergence, 240 h; for pest or weed control at 125 g/ha: 125 g ai/ha, preemergence, 0 to 100 scale where 0 is no effect and 100 is complete control, read-out: Kochia plant response rating; for pest or weed control at 500 g/ha: 500 g ai/ha, Preemergence, visual injury vs untreated controls after approximately 10 d, read-out: Kochia plant response rating (0 to 100 scale where 0 is no effect and 100 is complete control)
In short: (§1)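 Preemergence directed soil spray on seeded pots, or postemergence application to plants 2–10 cm, one- to two-leaf. Solvent mixture non-phytotoxic, with surfactant. Scored ~10 d later, visually, 0–100 vs untreated.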

[2] = tested on: barnyardgrass (Echinochloa crus-galli); test: Test A preemergence; settings: Echinochloa crus-galli, pre-emergence, 240 h; for pest or weed control at 125 g/ha: 125 g ai/ha, preemergence, 0 to 100 scale where 0 is no effect and 100 is complete control, read-out: Barnyardgrass plant response rating; for pest or weed control at 500 g/ha: 500 g ai/ha, Preemergence, visual injury vs untreated controls after approximately 10 d, read-out: Barnyardgrass plant response rating (0 to 100 scale where 0 is no effect and 100 is complete control)
In short: as §1

[3] = tested on: giant foxtail (Setaria faberii); test: Test A preemergence; settings: Setaria faberi, pre-emergence, 240 h; for pest or weed control at 125 g/ha: 125 g ai/ha, preemergence, 0 to 100 scale where 0 is no effect and 100 is complete control, read-out: Foxtail, Giant plant response rating; for pest or weed control at 500 g/ha: 500 g ai/ha, Preemergence, visual injury vs untreated controls after approximately 10 d, read-out: Foxtail, Giant plant response rating (0 to 100 scale where 0 is no effect and 100 is complete control)
In short: as §1

[4] = tested on: pigweed (Amaranthus retroflexus); test: Test A preemergence; settings: Amaranthus retroflexus, pre-emergence, 240 h; for pest or weed control at 125 g/ha: 125 g ai/ha, preemergence, 0 to 100 scale where 0 is no effect and 100 is complete control, read-out: Pigweed plant response rating; for pest or weed control at 500 g/ha: 500 g ai/ha, Preemergence, visual injury vs untreated controls after approximately 10 d, read-out: Pigweed plant response rating (0 to 100 scale where 0 is no effect and 100 is complete control)
[5] = tested on: ragweed (common ragweed, Ambrosia elatior); test: Test A preemergence; settings: Ambrosia artemisiifolia, pre-emergence, 240 h; for pest or weed control at 125 g/ha: 125 g ai/ha, preemergence, 0 to 100 scale where 0 is no effect and 100 is complete control, read-out: Ragweed plant response rating; for pest or weed control at 500 g/ha: 500 g ai/ha, Preemergence, visual injury vs untreated controls after approximately 10 d, read-out: Ragweed plant response rating (0 to 100 scale where 0 is no effect and 100 is complete control)
In short: as §1

[6] = tested on: ryegrass, Italian (Italian ryegrass, Lolium multiflorum); test: Test A preemergence; settings: Lolium multiflorum, pre-emergence, 240 h; for pest or weed control at 125 g/ha: 125 g ai/ha, preemergence, 0 to 100 scale where 0 is no effect and 100 is complete control, read-out: Ryegrass, Italian plant response rating; for pest or weed control at 500 g/ha: 500 g ai/ha, Preemergence, visual injury vs untreated controls after approximately 10 d, read-out: Ryegrass, Italian plant response rating (0 to 100 scale where 0 is no effect and 100 is complete control)
In short: as §1

[7] = tested on: Galium (catchweed bedstraw, Galium aparine); test: Test A postemergence; settings: Galium, post-emergence, 240 h, 125 g ai/ha, postemergence, visual injury rating after approximately 10 d; read-out: Galium plant response rating (0 to 100 scale, 0 no effect, 100 complete control)
In short: as §1

Kochia (Kochia scoparia) [8] = test: Test A postemergence; settings: Bassia scoparia, post-emergence, 240 h, 125 g ai/ha, postemergence, visual injury rating after approximately 10 d; read-out: Kochia plant response rating (0 to 100 scale, 0 no effect, 100 complete control)
In short: as §1

[9] = tested on: ragweed (common ragweed, Ambrosia elatior); test: Test A postemergence; settings: Ambrosia artemisiifolia, post-emergence, 240 h, 125 g ai/ha, postemergence, visual injury rating after approximately 10 d; read-out: Ragweed plant response rating (0 to 100 scale, 0 no effect, 100 complete control)
In short: as §1

[10] = tested on: ryegrass, Italian (Italian ryegrass, Lolium multiflorum); test: Test A postemergence; settings: Lolium multiflorum, post-emergence, 240 h, 125 g ai/ha, postemergence, visual injury rating after approximately 10 d; read-out: Ryegrass, Italian plant response rating (0 to 100 scale, 0 no effect, 100 complete control)
In short: as §1

[11] = tested on: wheat (Triticum aestivum); test: Test A postemergence; settings: Triticum aestivum, post-emergence, 240 h, 125 g ai/ha, postemergence, visual injury rating after approximately 10 d; read-out: Wheat plant response rating (0 to 100 scale, 0 no effect, 100 complete control)
In short: as §1

[12] = tested on: barnyardgrass (Echinochloa crus-galli); test: Test B flooded paddy test; settings: Echinochloa crus-galli, Flood, 250 g ai/ha; scale of 0 to 100 where 0 is no effect and 100 is complete control; read-out: Barnyardgrass plant response rating
In short: (§2)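 Greenhouse paddy pots with 2-leaf stage plants received compound by direct addition to floodwater 3 cm deep, kept at that level. Scored visually at 13–15 d versus controls (0 no effect; 100 complete control).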

[13] = tested on: ducksalad (Heteranthera limosa); test: Test B flooded paddy test; settings: Heteranthera limosa, Flood, 250 g ai/ha; scale of 0 to 100 where 0 is no effect and 100 is complete control; read-out: Ducksalad plant response rating
In short: as §2

rice (Oryra sativa) = test: Test B flooded paddy test; settings: Oryza sativa, Flood, 250 g ai/ha; scale of 0 to 100 where 0 is no effect and 100 is complete control; read-out: Rice plant response rating
In short: as §2

[14] = tested on: sedge, umbrella (small-flower umbrella sedge, Cyperus difformis); test: Test B flooded paddy test; settings: Cyperus difformis, Flood, 250 g ai/ha; scale of 0 to 100 where 0 is no effect and 100 is complete control; read-out: Sedge, Umbrella plant response rating
In short: as §2

SMILES | pest or weed control at 125 g/ha (Kochia (Kochia scoparia) [1]) | pest or weed control at 500 g/ha (Kochia (Kochia scoparia) [1]) | pest or weed control at 125 g/ha [2] | pest or weed control at 500 g/ha [2] | pest or weed control at 125 g/ha [3] | pest or weed control at 500 g/ha [3] | pest or weed control at 125 g/ha [4] | pest or weed control at 500 g/ha [4] | pest or weed control at 125 g/ha [5] | pest or weed control at 500 g/ha [5] | pest or weed control at 125 g/ha [6] | pest or weed control at 500 g/ha [6] | pest or weed control at 125 g/ha [7] | pest or weed control at 125 g/ha (Kochia (Kochia scoparia) [8]) | pest or weed control at 125 g/ha [9] | pest or weed control at 125 g/ha [10] | plant injury at 125 g/ha [11] | pest or weed control at 250 g/ha [12] | pest or weed control at 250 g/ha [13] | pest or weed control at 250 g/ha (rice (Oryra sativa)) | other results
Cc1c(F)ccc([C@H]2CN(C)C(=O)[C@@H]2C(=O)Nc2ccc(F)c(F)c2F)c1F [Compound 836] | 90% | 90% | 90% | 90% | 90% | 90% | 30% | 60% | 0% | 0% | 90% | 80% | 50% | 50% | 0% | 60% | 40% | 65% | 95% | 0% | pest or weed control at 250 g/ha [14]: 0%
O=C1NC[C@H](c2cc(F)c(C(F)(F)F)c(F)c2)[C@H]1C(=O)Nc1ccc(F)cc1F [Compound 840] | 0% | 70% | 80% | 90% | 90% | 90% | 30% | 60% | 0% | 0% | 0% | 20% | 50% | 0% | 0% | 0% | 20% | 0% | 80% | 0% | pest or weed control at 250 g/ha [14]: 0%
Cc1c(F)ccc([C@H]2CN(C)C(=O)[C@@H]2C(=O)Nc2ccccc2C(F)(F)F)c1F [Compound 841] | 40% | 60% | 90% | 100% | 90% | 90% | 0% | 30% | 0% | 0% | 0% | 40% | 40% | 30% | 0% | 20% | 0% | 40% | 80% | 0% | pest or weed control at 250 g/ha [14]: 0%
Cc1c(F)ccc([C@H]2CN(C)C(=O)[C@@H]2C(=O)Nc2ccccc2S(C)(=O)=O)c1F [Compound 842] | 80% | 80% | 90% | 90% | 90% | 100% | 40% | 70% | 70% | 80% | 30% | 60% | 50% | 30% | 30% | 20% | 30% | 65% | 100% | 0% | pest or weed control at 250 g/ha [14]: 0%
CN1CC(c2cccc(C=O)c2)C(C(=O)Nc2ccccc2F)C1=O (stereo not drawn) [Compound 844] | 0% | 0% | 0% | 20% | 0% | 30% | 0% | 0% | 0% | 0% | 0% | 0% | 0% | 0% | 0% | 0% | 0% | 0% | 0% | 0% | pest or weed control at 250 g/ha [14]: 0%
O=C1NCC(c2cccc(I)c2)C1C(=O)Nc1ccccc1F (stereo not drawn) [Compound 845] | 40% | 90% | 90% | 90% | 80% | 90% | 0% | 0% | 0% | 0% | 0% | 30% | 20% | 0% | 0% | 30% | 0% | 30% | 0% | 20% | pest or weed control at 250 g/ha [14]: 0%
